Molecular target: MDk/W452(H5N8) NA (Influenza A virus, UniProt A0A088CBR8)
Assay type: biochemical

SMILES	Sensitivity of virus to NA inhibitor (assessment of the IC50)
CCC(CC)[C@H](NC(C)=O)[C@@H]1[C@H](O)[C@@H](C(=O)O)C[C@H]1N=C(N)N [Peramivir, peramivir]	sensitive
CC(=O)N[C@H]1[C@H]([C@H](O)[C@H](O)CO)OC(C(=O)O)=C[C@@H]1N=C(N)N [Zanamivir, zanamivir]	sensitive
